Laboratory results reported in patent US4143133A, “Claudogenic-interceptive nonapeptides” (American Home Products Corporation, priority 1977, dated 1979).

How the values were obtained:
[1] = system: Proestrous female Sprague-Dawley rats; assay: Ovulation induction in Nembutal-treated proestrous rats; format: in vivo; settings: P.O.; rat
[2] = system: Mature, female, Sprague-Dawley rats; assay: Anti-gravidity (claudogenic/interceptive) test in mated rats; format: in vivo; settings: rat; for Claudogen (D 1-7), Minimal Effective Dose (100% effect): days 1-7 of pregnancy; for Interceptive (D 7-12), Minimal Effective Dose (100% effect): days 7-12 of pregnancy
[3] = system: Proestrous female Sprague-Dawley rats; assay: Ovulation induction in Nembutal-treated proestrous rats; format: in vivo, rat; settings: for Dose giving ovulation inducing activity in 100 percent of the rats: via the jugular vein, Nembutal 50 mg/kg i.p.
Procedure: The ovulation-induction properties of the nonapeptides of this invention was determined as follows:
Proestrous female Sprague-Dawley rats were injected intraperitoneally with a hypnotic dose of Nembutal® (50 mg/kg) at 1:30 P.M. Between 1:40 and 1:50 P.M. the rats received the test material via the jugular vein. The following morning the animals were sacraficed and the fallopian tubes examined for ova under a dissecting microscope. […] Thus, in its ovulation induction, the preferred compound of this invention, [D-2-(cyclohexyl)Gly^6, Pro-NHC2 H5^9 ]LHRH is about 10 times as active as [D-Ala^6, Pro-NHC2 H5^9 ]LH-RH and 30 times as active as LH-RH.

[4] = cited from earlier work
LH secretion = settings: cited from earlier work

CCNC(=O)[C@@H]1CCCN1C(=O)[C@H](CCCNC(=N)N)NC(=O)[C@H](CC(C)C)NC(=O)[C@H](NC(=O)[C@H](Cc1ccc(O)cc1)NC(=O)[C@H](CO)NC(=O)[C@H](Cc1c[nH]c2ccccc12)NC(=O)[C@H](Cc1c[nH]cn1)NC(=O)[C@@H]1CCC(=O)N1)C1CCCCC1 [Example 5, L-pyroglutamyl-L-histidyl-L-tryptophyl-L-seryl-L-tyrosyl-D-2-(cyclohexyl)glycyl-L-leucyl-L-arginyl-L-prolinethylamide]
Ovulation induction, Minimal Effective Dose (100% effect) [1]: ~ 10 μ/rat
Claudogen (D 1-7), Minimal Effective Dose (100% effect) ([2]; P.O.): 200 μ/rat
Interceptive (D 7-12), Minimal Effective Dose (100% effect) ([2]; P.O.): > 1000 μ/rat
Claudogen (D 1-7), Minimal Effective Dose (100% effect) ([2]; S.C.): ~ 1.0 μ/rat
Interceptive (D 7-12), Minimal Effective Dose (100% effect) ([2]; S.C.): ~ 10 μ/rat
Ovulation induction, Minimal Effective Dose (100% effect) ([3]; I.V., rat): 0.10 μ/rat
Ovulation induction activity relative to LH-RH ([3]; rat): ~30 times
Ovulation induction activity relative to [D-Ala^6, Pro-NHC2 H5^9 ]LH-RH ([3]; rat): about 10 times
Dose giving ovulation inducing activity in 100 percent of the rats [3]: 0.1 μg per rat

CCNC(=O)[C@@H]1CCCN1C(=O)[C@H](CCCNC(=N)N)NC(=O)[C@H](CC(C)C)N(C)C(=O)[C@H](NC(=O)[C@H](Cc1ccc(O)cc1)NC(=O)[C@H](CO)NC(=O)[C@H](Cc1c[nH]c2ccccc12)NC(=O)[C@H](Cc1c[nH]cn1)NC(=O)[C@@H]1CCC(=O)N1)C1CCCCC1 [Example 6]
Ovulation induction, Minimal Effective Dose (100% effect) [1]: > 10 μg/rat
Claudogen (D 1-7), Minimal Effective Dose (100% effect) ([2]; P.O.): > 1000 μg/rat
Interceptive (D 7-12), Minimal Effective Dose (100% effect) ([2]; P.O.): > 1000 μg/rat
Claudogen (D 1-7), Minimal Effective Dose (100% effect) ([2]; S.C.): 10 μg/rat
Interceptive (D 7-12), Minimal Effective Dose (100% effect) ([2]; S.C.): ~ 10 μg/rat
Ovulation induction, Minimal Effective Dose (100% effect) ([3]; i.v., rat): 1.0 μg/rat
Dose giving ovulation inducing activity in 100 percent of the rats [3]: 1.0 μg per rat

D-Ala^6 -LRH
Potency relative to LH-RH ([4]; Monahan et al. 1973): more potent than LH-RH

D-Ala^6, (N^α -Me)Leu^7 LH-RH
Potency in stimulating the secretion of LH, percent of LH-RH's potency (LH secretion; Ling et al. 1975): 560%

LH-RH (QHWSYGLRPG; Gonadoliberin-1; UniProt P01148 24-33, looked up) [native hormone used as comparison in ovulation induction, reference compound]
Dose giving ovulation inducing activity in 100 percent of the rats [3]: about 3 μg per rat

[D-Ala^6, des-Gly-NH2^10, Proethylamide]LH-RH [reference compound]
Potency in stimulating LH secretion relative to D-Ala^6 -LH-RH (LH secretion; Coy et al. 1974): about twice
Dose giving ovulation inducing activity in 100 percent of the rats [3]: about 1 μg per rat

des-Gly^10 -Pro-NHC2 H5 -LH-RH
Activity relative to LH-RH ([4]; Fujino et al. 1972): three to five times as active as LH-RH
